This is an account of results in patent US8609710B2, “Cycloalkyl-substituted imidazole derivative” (Daiichi Sankyo Company, Limited, priority 2010, dated 2013).

Counter-ions that a name gives are not always drawn.

Chain of TAFIa (Q96IY4 115-423): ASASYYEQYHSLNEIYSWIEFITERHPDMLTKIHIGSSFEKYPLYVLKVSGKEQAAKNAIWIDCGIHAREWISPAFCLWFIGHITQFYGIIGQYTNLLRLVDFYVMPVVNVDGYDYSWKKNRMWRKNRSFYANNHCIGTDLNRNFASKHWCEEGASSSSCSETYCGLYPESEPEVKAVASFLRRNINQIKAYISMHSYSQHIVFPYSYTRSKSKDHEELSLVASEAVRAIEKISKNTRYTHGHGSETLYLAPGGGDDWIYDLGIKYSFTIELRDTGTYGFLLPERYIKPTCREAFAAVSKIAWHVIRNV

One experiment has as its target TAFIa (Homo sapiens (Human), UniProt Q96IY4). Briefly: Determination of TAFIa enzyme inhibitory activity. Format: biochemical. The conditions noted are these: substrate furylacryloyl-alanyl-lysine (FAAK), absorbance at 330 nm. On the procedure:
HEPES buffered saline (20 mM HEPES, 150 mM NaCl, pH 7.4; hereinafter, referred to as HBS) was used in the preparation of a reaction solution. To 12 μL of a 250 μg/mL TAFI solution, 30 μL of an HBS solution containing 4 U/mL human thrombin, 12 U/mL rabbit lung thrombomodulin, and 12 mM CaCl2 was added, and the mixture was gently stirred. Then, TAFI was activated at room temperature. Ten minutes later, thrombin was neutralized by the addition of 10 μL of 100 μM PPACK (thrombin inhibitor) to terminate the activation of TAFI. The formed TAFIa was stored in ice and diluted immediately before use in determination with 2050 μL of an HBS solution containing BSA (bovine serum albumin) adjusted to 0.1% in terms of the final concentration.
A test substance was dissolved in HBS to prepare a 10-fold dilution series of evaluation concentrations. 80 μl, of the TAFIa solution and 10 μL of the test substance were added to each well of a 96-well plate and mixed by shaking for 10 minutes. 10 μL, of furylacryloyl-alanyl-lysine (FAAK) adjusted to 5 mg/mL was added to each well, and the change in the absorbance of this mixed solution at 330 nm was read for 30 minutes to determine the degradation rate of the substrate.
The degradation rate of the substrate in each well was applied to a standard curve prepared using the dilution series of the TAFIa solution to calculate TAFIa activity. The 50% inhibitory concentration (IC50) was calculated based on the correlation between the concentration of the test compound and the TAFIa activity. Compound A (compound of Example 7 in the pamphlet of International Publication No. WO 2002/014285) was used as a control.
The molecule `CCC(CN)CC(Cc1cn([C@H]2CC[C@H](C)CC2)cn1)C(=O)O` (stereo partly drawn) [Example 36, 4-(Aminomethyl)-2-{[1-(trans-4-methylcyclohexyl)-1H-imidazol-4-yl]methyl}hexanoic acid hydrochloride] returned an IC50 of 10 nM.

For the molecule `NCCCC(Cc1cn([C@H]2CC[C@H](O)CC2)cn1)C(=O)O` (stereo partly drawn) [Example 7, 5-Amino-2-{[1-(trans-4-hydroxycyclohexyl)-1H-imidazol-4-yl]methyl}valeric acid], the IC50 was determined as 26 nM.

With `C[C@H]1CC[C@H](n2cnc(CC(OCCN)C(=O)O)c2)CC1` (stereo partly drawn) [Example 24, 2-(2-Aminoethoxy)-3-[1-(trans-4-methylcyclohexyl)-1H-imidazol-4-yl]propionic acid], the IC50 was found to be 8.1 nM.

The molecule `C[C@@H](CN)C[C@@H](Cc1cn([C@H]2CC[C@H](C)CC2)cn1)C(=O)O` [35(2S,4R form), (2S,4R)-5-Amino-4-methyl-2-{[1-(trans-4-methylcyclohexyl)-1H-imidazol-4-yl]methyl}valeric acid] showed an IC50 of 5.1 nM.

The molecule `CC[C@H]1CC[C@H](n2cnc(CC(CCCN)C(=O)O)c2)CC1` (stereo partly drawn) [Example 3, 5-Amino-2-{[1-(trans-4-ethylcyclohexyl)-1H-imidazol-4-yl]methyl}valeric acid] came in with an IC50 of 8.8 nM.

Turning to `NCCCC(Cc1cn(C2CCCCCC2)cn1)C(=O)O` (stereo not shown) [Example 10, 5-Amino-2-[(1-cycloheptyl-1H-imidazol-4-yl)methyl]valeric acid], the IC50 was found to be 21 nM.

The molecule `C[C@H]1CC[C@H](n2cnc(C[C@H](CCCN)C(=O)O)c2)CC1` [Example 40, (2S)-5-Amino-2-{[1-(trans-4-methylcyclohexyl)-1H-imidazol-4-yl]methyl}valeric acid p-toluenesulfonate anhydrate] returned an IC50 of 2.6 nM.

On to `CC1(O)CCC(n2cnc(CC(CCCN)C(=O)O)c2)CC1` (stereo not shown) [Example 8, 5-Amino-2-{[1-(4-hydroxy-4-methylcyclohexyl)-1H-imidazol-4-yl]methyl}valeric acid], for which the IC50 worked out at 19 nM.

Molecule `CC1CC(n2cnc(CC(CCCN)C(=O)O)c2)C1` (stereo not shown) [Example 5, 5-Amino-2-{[1-(3-methylcyclobutyl)-1H-imidazol-4-yl]methyl}valeric acid] showed an IC50 of 36 nM.

`NCCCC(Cc1cn([C@@H]2C[C@H]3C[C@H]3C2)cn1)C(=O)O` (mixture of isomers) [Example 6, (2RS)-5-Amino-2-({1-[(1R,3s,5S)-bicyclo[3.1.0]hexan-3-yl]-1H-imidazol-4-yl}methyl)valeric acid] displayed an IC50 of 21 nM.

Turning to `NCCCC(Cc1cn([C@H]2CC[C@H](Oc3ccccc3)CC2)cn1)C(=O)O` (stereo partly drawn) [Example 14, 5-Amino-2-{[1-(trans-4-phenoxycyclohexyl)-1H-imidazol-4-yl]methyl}valeric acid], the IC50 stood at 13 nM.

For `C[C@@H](CN)C[C@H](Cc1cn([C@H]2CC[C@H](C)CC2)cn1)C(=O)O` [35(2R,4R form), (2R,4R)-5-Amino-4-methyl-2-{[1-(trans-4-methylcyclohexyl)-1H-imidazol-4-yl]methyl}valeric acid], the IC50 was greater than 100 nM.

In turn, `NCCCC(Cc1cn(C2CCCCC2)cn1)C(=O)O` (stereo not shown) [Example 1, 5-Amino-2-[(1-cyclohexyl-1H-imidazol-4-yl)methyl]valeric acid] registered an IC50 of 21 nM.

Turning to `CCC1CC(n2cnc(CC(CCCN)C(=O)O)c2)C1` (stereo not shown) [Example 4, 5-Amino-2-{[1-(3-ethylcyclobutyl)-1H-imidazol-4-yl]methyl}valeric acid], the IC50 is 14 nM.

For the molecule `C[C@H](CN)C[C@H](Cc1cn([C@H]2CC[C@H](C)CC2)cn1)C(=O)O` [34(2R,4S form), (2R,4S)-5-Amino-4-methyl-2-{[1-(trans-4-methylcyclohexyl)-1H-imidazol-4-yl]methyl}valeric acid], it took 34 nM to reach half-maximal inhibition (IC50).

`NCCCC(Cc1cn([C@@H]2CC3CCC2C3)cn1)C(=O)O` (stereo partly drawn) [Example 11, 5-Amino-2-({1-[exo-bicyclo[2.2.1]hept-2-yl]-1H-imidazol-4-yl}methyl)valeric acid] gave an IC50 of 14 nM.

`C[C@H]1CC[C@H](n2cnc(C[C@H](CCCN)C(=O)O)c2)CC1` [15(2S form), (2S)-5-Amino-2-{[1-(trans-4-methylcyclohexyl)-1H-imidazol-4-yl]methyl}valeric acid] displayed an IC50 of 7.8 nM.

On to `C[C@H](CN)OC(Cc1cn([C@H]2CC[C@H](C)CC2)cn1)C(=O)O` (stereo partly drawn) [Example 25, 2-[(1R)-2-Amino-1-methylethoxy]-3-[1-(trans-4-methylcyclohexyl)-1H-imidazol-4-yl]propionic acid], for which 7 nM corresponded to half-maximal inhibition (IC50).

Turning to `NCCCC(Cc1cn([C@H]2CC[C@H](Oc3ccncc3)CC2)cn1)C(=O)O` (stereo partly drawn) [Example 38, 5-Amino-2-({1-[trans-4-(pyridin-4-yloxy)cyclohexyl]-1H-imidazol-4-yl}methyl)valeric acid hydrochloride], the half-maximal inhibitory concentration (IC50) was found to be 9.8 nM.

As to `CC1CCCC(n2cnc(CC(CCCN)C(=O)O)c2)C1` (stereo not shown) [Example 9, 5-Amino-2-{[1-(3-methylcyclohexyl)-1H-imidazol-4-yl]methyl}valeric acid], the midpoint of inhibition, the IC50, lay at 18 nM.

Turning to `C[C@H]1CC[C@H](n2cnc(CC(CCCN)C(=O)O)c2)CC1` (stereo partly drawn) [Example 2, 5-Amino-2-{[1-(trans-4-methylcyclohexyl)-1H-imidazol-4-yl]methyl}valeric acid], half-maximal inhibition (IC50) was put at 8.3 nM.

With `NCCCC(Cc1cn([C@H]2CC3CCC2C3)cn1)C(=O)O` (stereo partly drawn) [Example 12, 5-Amino-2-([1-[endo-bicyclo[2.2.1]hept-2-yl]-1H-imidazol-4-yl]methyl)valeric acid], the midpoint of inhibition, the IC50, lay at 25 nM.

As to `C[C@H]1CC[C@@H](n2cnc(CC(CCCN)C(=O)O)c2)CC1` (stereo partly drawn) [Example 39, 5-Amino-2-{[1-(cis-4-methylcyclohexyl)-1H-imidazol-4-yl]methyl}valeric acid], half-maximal inhibition (IC50) required 9.3 nM.

In turn, `NCCCC(Cc1cn(C2C3CC4CC(C3)CC2C4)cn1)C(=O)O` (stereo not shown) [Example 13, 2-[(1-Adamantan-2-yl-1H-imidazol-4-yl)methyl]-5-aminovaleric acid] had an IC50 of 12 nM.

`NCCCC(Cc1cn([C@H]2CC[C@@H](O)CC2)cn1)C(=O)O` (stereo partly drawn) [Example 37, 5-Amino-2-{[1-(cis-4-hydroxycyclohexyl)-1H-imidazol-4-yl]methyl}valeric acid] gave an IC50 of 19 nM.

`C[C@H]1CC[C@H](n2cnc(C[C@@H](CCCN)C(=O)O)c2)CC1` [15(2R form), (2R)-5-Amino-2-{[1-(trans-4-methylcyclohexyl)-1H-imidazol-4-yl]methyl}valeric acid] showed an IC50 greater than 100 nM.

In the case of `CC1(C)CCCC(n2cnc(CC(CCCN)C(=O)O)c2)C1` (stereo not shown) [Example 33, 5-Amino-2-{[1-(3,3-dimethylcyclohexyl)-1H-imidazol-4-yl]methyl}valeric acid], inhibition was half-maximal at 7.5 nM (IC50).

With `C[C@H]1CC[C@H](n2cnc(CC(C(=O)O)N3CC[C@H](N)C3)c2)CC1` (stereo partly drawn) [Example 26, 2-[(3S)-3-Aminopyrrolidin-1-yl]-3-[1-(trans-4-methylcyclohexyl)-1H-imidazol-4-yl]propionic acid], the IC50 is 21 nM.

On to `C[C@H](CN)C[C@@H](Cc1cn([C@H]2CC[C@H](C)CC2)cn1)C(=O)O` [34(2S,4S form), (2S,4S)-5-Amino-4-methyl-2-{[1-(trans-4-methylcyclohexyl)-1H-imidazol-4-yl]methyl}valeric acid], for which the IC50 came to 5.4 nM.

The test system of another experiment is iron chloride-induced thrombus models.
Assay: not given
Particulars: mice, intravenous administration; cited from earlier work.
“potato carboxypeptidase inhibitor (PCI): TAFIa-inhibiting polypeptide consisting of 39 amino acids (QQHADPICNKPCKTHDDCSGAWFCQACWNSARTCGPYVG; UniProt P01075 1-39, looked up)”: the antithrombotic effect result is “antithrombotic effect”.

The subject of the next experiment is normal human plasma. Description: Fibrinolysis enhancing activity by measurement of time of plasma clot lysis. The conditions noted are these: normal human plasma with tPA; concentration that achieves 50% of 1/2 LT. Format: biochemical. On the procedure:
To a 96-well plate, 20 μL/well HBS, 50 μL/well normal human plasma, 10 μL/well compound solution (the compound solution was prepared by dissolving the compound in HBS, followed by serial dilution with this buffer), and 10 μL/well tPA (Activacin (Kyowa Hakko Kirin Co., Ltd.) was adjusted to 600,000 U/mL with a lysis solution included therein, followed by dilution with HBS) were added, and the mixture was stirred. Then, 10 μL/well reaction solution A (13.8 U/mL human thrombin, 170 mM CaCl2, and 0.9 U/mL thrombomodulin) was added thereto, and the mixture was stirred again. The absorbance at 405 nm was measured using a plate reader at 30-second intervals, with the temperature kept at 37° C. to measure the extent of coagulation. […] A concentration that achieves 50% of 1/2 LT was calculated as EC50 from the relationship between the concentration of the test substance and 1/2 LT. Compound A (compound of Example 7 in the pamphlet of International Publication No. WO 2002/014285) was used as a control.
For `C[C@H]1CC[C@H](n2cnc(C[C@H](CCCN)C(=O)O)c2)CC1` [15(2S form), (2S)-5-Amino-2-{[1-(trans-4-methylcyclohexyl)-1H-imidazol-4-yl]methyl}valeric acid], the EC50 was found to be 12 nM.
